Results: US20020192703A1, “Immunoassay reagents and methods for determination of LSD and LSD metabolites” (priority 1995, published 2002)

Experiments:
[1] = Urine time course after LSD administration, GC/MS; type: in vivo; details: human
Description: In this example, experiments were performed to better define the time course of excretion of LSD metabolites in urine, and the ability of various immunoassays to detect them.
Individuals were administered LSD, and urine samples were collected over a four-day period. The samples were assayed using the LSD enzyme-complementation immunoassay described in Examples 9 and 10 using monoclonal antibody 19A7. The samples were also measured using the DPC radioimmunoassay (“Coat-A-Count”® LSD assay, by Diagnostic Products Company) according to manufacturer's directions, and by GC/MS).
Results are shown in the following table in terms of LSD equivalents (translating the signal generated using a standard curve obtained with known concentrations of LSD).

[2] = test system: monoclonal antibody 19A7; type: binding, mice; details: Concentration Added 0.5 ng/ml
Description: Cross-reactivity was tested by spiking various potential cross-reactants into human urine containing a preservative.

[3] = test system: central nervous system; details: hallucinations, distortions in sensory perception, mood changes; cited from earlier work
[4] = in man; calculated; cited from earlier work

CCN(CC)C(=O)[C@@H]1C=C2c3cccc4[nH]cc(c34)C[C@H]2N(C)C1 [LSD, lysergic acid diethylamide]
concentration at 4 h ([1]; urine sample JS U3, 4 hrs after LSD administration): 0.39 ng/mL
concentration at 6 h ([1]; urine sample JS U4, 6 hrs after LSD administration): 0.37 ng/mL
concentration at 8 h ([1]; urine sample JS U5, 8 hrs after LSD administration): 0.38 ng/mL
concentration at 10 h ([1]; urine sample JS U6, 10 hrs after LSD administration): 0.64 ng/mL
concentration at 12 h ([1]; urine sample JS U7, 12 hrs after LSD administration): 0.52 ng/mL
concentration at 24 h ([1]; urine sample JS U8, 24 hrs after LSD administration): 0.34 ng/mL
concentration at 36 h ([1]; urine sample JS U9, 36 hrs after LSD administration): 0.03 ng/mL
concentration at 48 h ([1]; urine sample JS U10, 48 hrs after LSD administration): 0.01 ng/mL
concentration at 60 h ([1]; urine sample JS U11, 60 hrs after LSD administration): 0 ng/mL
concentration at 72 h ([1]; urine sample JS U12, 72 hrs after LSD administration): 0.02 ng/mL
concentration at 84 h ([1]; urine sample JS U13, 84 hrs after LSD administration): 0 ng/mL
concentration at 98 h ([1]; urine sample JS U14, 98 hrs after LSD administration): 0 ng/mL
concentration at 2 h ([1]; urine sample SW U2, 2 hrs after LSD administration): 0.33 ng/mL
concentration at 4 h ([1]; urine sample SW U3, 4 hrs after LSD administration): 0.54 ng/mL
concentration at 8 h ([1]; urine sample SW U4, 8 hrs after LSD administration): 0.52 ng/mL
concentration at 8 h ([1]; urine sample SW U5, 8 hrs after LSD administration): 0.71 ng/mL
concentration at 10 h ([1]; urine sample SW U6, 10 hrs after LSD administration): 0.76 ng/mL
concentration at 12 h ([1]; urine sample SW U7, 12 hrs after LSD administration): 1.77 ng/mL
concentration at 24 h ([1]; urine sample SW U8, 24 hrs after LSD administration): 1.42 ng/mL
concentration at 36 h ([1]; urine sample SW U9, 36 hrs after LSD administration): 0.11 ng/mL
concentration at 48 h ([1]; urine sample SW U10, 48 hrs after LSD administration): 0.04 ng/mL
concentration at 60 h ([1]; urine sample SW U11, 60 hrs after LSD administration): 0.02 ng/mL
concentration at 72 h ([1]; urine sample SW U12, 72 hrs after LSD administration): 0 ng/mL
concentration at 96 h ([1]; urine sample SW U14, 96 hrs after LSD administration): 0.01 ng/mL
% Cross-Reactivity ([2]; 100 × observed dose / concentration added): 100.00%
Concentration Observed ([2]; in human urine): 0.5 ng/mL
Oral doses that can cause central nervous system disturbances (as low as) [3]: 25 µg
plasma half-life [4]: about 3 hours
